Reference: patent publication US12697313B2, “Methods of treating anemia using formoterol or a pharmaceutically acceptable salt thereof” (Dana-Farber Cancer Institute, Inc., priority 2022, dated 2026)
Entries after “also recorded” stand apart in the source; their conditions may differ.

Columns and labels:
wild-type C57BL/6J mice = experiment: Dose-specific effects of FF i.p. daily for 30 days in naive wild-type mice (Example 3); format: in vivo; details: for monocyte counts: FIG. 85B; for hemoglobin (Hb) levels: FIG. 84A; for RBC parameters (Hb, HCT %, RBC numbers): FIG. 84
Procedure: As described in Example 1 above, formoterol fumarate (FF) treatment of wild-type mice was well-tolerated (FIGS. 14A-14E). The effects of varying doses of FF from 0.1 up to 1.0 mg/kg were evaluated in naive mice without any external stress of phenylhydrazine (PHZ). Specifically, varying doses of FF 0.1-0.3-0.5-1.0 mg/kg or vehicle (0.3% DMSO in saline) were administered via intraperitoneal (i.p.) injection in 10-12 week old wild-type C57BL/6J mice daily for a period of 30 days.

RPS14 KD HSPCs = experiment: Erythroid differentiation in RPS14 knockdown HSPCs; format: cell-based, human; details: RPS14 KD HSPCs vs DMSO; FIG. 6D, FIG. 46
Description: Since RIOK2-deficient primary human HSPCs effectively model impaired erythropoiesis leading to anemia (Ghosh et la. (2022) Nat Immunol 23: 109-121), it was next investigated whether treatment with formoterol fumarate (FF) alleviates anemia in this in vitro model. To address this, RIOK2-proficient and deficient primary human HSPCs via CRISPR-Cas9 based genome-editing were generated (FIG. 6A), as previously described (Ghosh et al. (2022) Nat Immunol 23: 109-121). […] Since RPS14 deletion is reported to be MDS-genic (Ebert et al. (2008) Nature 451: 335-339; Schneider et al. (2016) Nat Med 22: 288-297), RPS14 was similarly knocked down in primary human HSPCs (FIG. 6C).
Next, to validate the specificity of FF for β2-adrenoreceptors, ADRB2 was knocked down in primary human HSPCs and treated with FF.
Primary human HSPCs were genome-edited, as previously described (Ghosh, S., Raundhal, M., Myers, S. A., Carr, S. A., Chen, X., Petsko, G. A., and Glimcher, L. H. (2022). Identification of RIOK2 as a master regulator of human blood cell development. Nat Immunol 23, 109-121).

[1] = system: phenylhydrazine (PHZ)-mediated stress-induced anemic mice; experiment: Sublethal PHZ (50 mg/kg)-induced hemolytic anemia, female mice, FF i.p.; format: in vivo
[2] = system: phenylhydrazine (PHZ)-treated mice; experiment: FF oral gavage in PHZ-treated mice at sub-lethal dose of 60 mg/kg; format: in vivo
[3] = system: ovariectomized rat models; details: ovariectomized rat models (Kellenberger et al. 1998); cited from earlier work
primary human HSPCs = experiment: Mitochondrial functions in primary human HSPCs (mtDNA genes, TMRE, MitoTracker); format: cell-based
Procedure: Given the involvement of β2-AR in erythropoiesis, it was hypothesized that administration of long-acting selective β2-AR agonist FF might promote erythroid differentiation. To address this, primary human HSPCs were treated with varying doses of FF (Selleckchem). […] To ascertain if FF administration plays a role further upstream in the erythroid differentiation pathway, methylcellulose colony-formation assays were performed.
TMRE (T669, Invitrogen) and Mitotracker® (M22426, Life Technologies) and MitoSox® (M36008, Life Technologies) staining were performed as per the manufacturer's instructions.

Apcmin mice = experiment: FF i.p. in Apcmin mice (intestinal adenoma model that develops anemia); format: in vivo
Procedure: This is a mouse model of intestinal adenoma that develops anemia. FF treatment at a low dose of 0.3 mg/kg daily (i.p.) alleviates RBC parameters, such as (FIG. 74A) RBCs (FIG. 74B) hematocrit% (HCT%) and (FIG. 74C) hemoglobin (Hb) in Apcmin mice that spontaneously develop anemia at ~3 months age. * p<0.05, *** p<0.001, 2-way ANOVA. n=5-6 mice per group. Comparisons are shown in between Apcmin+FF versus Apcmin+Veh. Veh: vehicle; LC: littermate control mice.

[4] = system: PHZ-induced lethal hemolytic anemia mice; experiment: PHZ lethal dose (135 mg/kg), FF oral gavage; format: in vivo; details: 0.1/0.5 mg/kg o.g.; PHZ 135 mg/kg; FIG. 54
Description: Log-rank (Mantel-Cox) test. n=5 mice per group. All comparisons were done w.r.t. vehicle (DMSO) treated controls.

[5] = system: phenylhydrazine (PHZ)-treated mice; experiment: FF/Arf i.p. in PHZ-treated mice at sub-lethal dose of 60 mg/kg; format: in vivo
[6] = 14 days of daily o.g., PHZ 60 mg/kg, FIG. 59

With COc1ccc(C[C@@H](C)NC[C@H](O)c2ccc(O)c(NC=O)c2)cc1.O=C(O)/C=C/C(=O)O [FF, (E)-but-2-enedioic acid;N-[2-hydroxy-5-[(1R)-1-hydroxy-2-[[(2R)-1-(4-methoxyphenyl)propan-2-yl]amino]ethyl]phenyl]formamide] as the compound, how does the monocyte counts (wild-type C57BL/6J mice; 0.1 mg/kg and 1.0 mg/kg) read?
Its monocyte counts is “but not at the lowest dose (0.1 mg/kg) or highest dose (1.0 mg/kg)”.

And the “hemoglobin (Hb) levels” value (wild-type C57BL/6J mice; 0.1 mg/kg to 0.5 mg/kg)?
Its value is “increased with dose”.

What about the “hematocrit (HCT) % and RBC counts” value (wild-type C57BL/6J mice; 0.3 mg/kg and 0.5 mg/kg, FIG. 84B-84C) of the same compound?
Its value is “elevated”.

What about the body weights (wild-type C57BL/6J mice; 1.0 mg/kg) of the same compound?
The body weights was “pronounced increase in body weights”.

What about the “RBC parameters (Hb, HCT %, RBC numbers)” value (wild-type C57BL/6J mice; 1.0 mg/kg) of the same compound?
Its value is “this effect is not observed”.

And the “hemoglobin (Hb) levels” value (wild-type C57BL/6J mice; 1.0 mg/kg)?
Its value is “no effect was observed”.

And the “white blood cell (WBC) count” value (wild-type C57BL/6J mice; 1.0 mg/kg, FIG. 85A)?
Its value is “modestly impacts WBC; also recorded: only marginally affected”.

And the body weights (wild-type C57BL/6J mice; 0.1-0.5 mg/kg)?
Its body weights is “modestly increasing body weights”.

What about the “% change in body weights” value (wild-type C57BL/6J mice; 0.1/0.3/0.5/1.0 mg/kg daily i.p., FIG. 83) of the same compound?
The value was “increases body weights in a dose-dependent manner; also recorded: showed a dose-dependent increase in body-weight”.

And the “RBC parameters (Hb, HCT %, RBC numbers)” value (wild-type C57BL/6J mice; 0.3 and 0.5 mg/kg)?
Its value is “enhance and sustain RBC parameters”.

What about the monocyte counts (wild-type C57BL/6J mice; 0.3 and 0.5 mg/kg) of the same compound?
The monocyte counts was “modestly impacts monocyte counts; also recorded: marginally affected”.

And the platelets (wild-type C57BL/6J mice; any dose, FIG. 85C)?
Its platelets is “No significant effect was observed”.

What about the “white blood count (WBC) numbers” value (wild-type C57BL/6J mice; lowest doses, FIG. 85A) of the same compound?
The value was “does not influence”.

And the “erythroid differentiation (CD235a)” value (RPS14 KD HSPCs)?
Its value is “significantly increased erythroid differentiation in RPS14 KD HSPCs; also recorded: increases erythroid differentiation (CD235a) in RPS14 KD HSPCs; also recorded: moderately rescues erythropoiesis”.

And the “body weights (absolute and % change)” value ([1]; 0.1/0.3 mg/kg daily i.p., female, FIG. 18A)?
Its value is “sufficient to revive body weights; also recorded: increases absolute body weights and % change in body weights”.

And the “HCT % and RBC counts” value ([1]; 0.1/0.3 mg/kg, FIG. 18B)?
Its value is “produced long-term benefits in elevating HCT % and RBC counts”.

What about the Hb production ([1]; 0.1/0.3 mg/kg, FIG. 18B) of the same compound?
Its Hb production is “significantly enhanced Hb production”.

What about the “RBC parameters (Hb, HCT %, RBC numbers) in peripheral blood” value ([1]; 0.1/0.3 mg/kg, FIG. 18B) of the same compound?
The value was “enhances and sustains RBC parameters”.

And the platelet counts ([1]; FIG. 18C)?
Its platelet counts is “not statistically significant”.

What about the “WBC and monocyte counts” value ([1]; day 4 and over 14 days, FIG. 18C) of the same compound?
The value was “provided an immediate boost to WBC and monocyte counts after PHZ administration, no long term benefits were observed; also recorded: increases WBC and monocyte counts in the peripheral blood after 4 days of daily i.p. injections but does not sustain the impact over 14 days”.

What about the “granulocyte monocyte progenitors (GMP)” value ([2]; 14 days of daily o.g., FIG. 60) of the same compound?
Its value is “does not affect granulocyte monocyte progenitors (GMP)”.

What about the “megakaryocytic progenitors (MkP)” value ([2]; 14 days of daily o.g., FIG. 60) of the same compound?
Its value is “increases megakaryocytic progenitors (MkP)”.

What about the “mitochondrial membrane potential (TMRE staining) in BMPs” value [2, 6] of the same compound?
Its value is “increases viability and mitochondrial membrane potential”.

What about the “viability of BMPs” value [2, 6] of the same compound?
The value was “increases viability and mitochondrial membrane potential”.

And the body weights ([2]; o.g., PHZ 60 mg/kg, FIG. 56)?
The body weights was “does not affect body weights”.

What about the “RBC parameters (HCT % and Hb) in peripheral blood” value ([2]; o.g., PHZ 60 mg/kg, FIG. 57) of the same compound?
Its value is “increases RBC parameters”.

What about the “WBC and platelets in peripheral blood” value ([2]; o.g., PHZ 60 mg/kg, FIG. 58) of the same compound?
Its value is “does not affect WBC and platelets”.

What about the effects on bone [3] of the same compound?
Its effects on bone is “anabolic effects on bone”.

What about the “mitochondrial membrane potential (TMRE staining)” value (primary human HSPCs; FIG. 5B) of the same compound?
The value was “elevated mitochondrial mass and membrane potential; also recorded: enhances mitochondrial membrane potential”.

What about the “mitochondrial mass (MitoTracker staining)” value (primary human HSPCs; FIG. 5C) of the same compound?
The value was “elevated mitochondrial mass and membrane potential; also recorded: increases mitochondrial mass”.

What about the “expression of mitochondrial DNA encoded genes MT-ND1, MT-CytB, MT-CO1, MT-ATP6” value (primary human HSPCs; vs DMSO, FIG. 5A) of the same compound?
The value was “enhanced expression of mtDNA encoded genes required for OXPHOS; also recorded: enhances expression of mitochondrial DNA encoded genes”.

And the “RBC parameters (RBCs, HCT%, Hb)” value (Apcmin mice; 0.3 mg/kg daily i.p., FIG. 74)?
The value was “elevates RBC parameters”.

And the body weight (Apcmin mice; FIG. 75)?
The body weight was “modestly increases body weight”.

And the “survival (Kaplan-Meier)” value [4]?
The value was “confers striking survival benefits”.

And the “colony forming unit-erythroid (CFU-e) from BM” value ([5]; 0.3 mg/kg i.p., FIG. 39A)?
The value was “enhances colony forming unit-erythroid (CFU-e)”.

What about the “transferrin receptor expression in CFU-e derived from BMPs” value ([5]; FIG. 39B) of the same compound?
Its value is “transferrin receptor expression is enhanced”.

And the “Hemoglobin (Hb) in peripheral blood” value ([5]; after 7 and 14 days of i.p., FIG. 35)?
Its value is “increase Hemoglobin (Hb)”.

And the “RBC parameters (HCT % and RBCs) in peripheral blood” value ([5]; after 7 days of i.p., FIG. 34)?
The value was “increases RBC parameters”.

And the “LS-K and LSK cells in bone marrow progenitors” value ([5]; after 14 days of i.p., FIG. 36A-36B)?
The value was “increase LSK, LS-K, and mitochondrial activity”.

What about the “mitochondrial membrane potential (TMRE staining) in bone marrow progenitors” value ([5]; after 14 days of i.p., FIG. 36C) of the same compound?
Its value is “increase LSK, LS-K, and mitochondrial activity”.

What about the “megakaryocyte erythrocyte progenitors (MEP) in BM” value ([5]; after 14 days of i.p., FIG. 37A) of the same compound?
The value was “increase megakaryocyte erythrocyte progenitors (MEP)”.

What about the body weights ([5]; i.p., PHZ 60 mg/kg, FIG. 32) of the same compound?
The body weights was “enhances body weights”.

What about the “platelets and WBCs in peripheral blood” value ([5]; i.p., PHZ 60 mg/kg, FIG. 33) of the same compound?
The value was “do not affect platelets and WBCs”.
